In PubChem BioAssay AID248 (DTP/NCI, 2004):
“And” between values parts separate entries of the source, which are not always exact repeats. Equal values may be shown once. Toxic doses and inconclusive results are not listed. Cut-off read from the data, not from the text of the source: active = T/C of 150% or more; inactive = T/C below 125%.

Tested on: L1210 leukemia ip in BDF1 mice, survival T/C
Assay: NCI In Vivo Anticancer Drug Screen. Data for tumor model L1210 Leukemia (intraperitoneal) in B6D2F1 (BDF1) mice
Details: endpoint: mean survival time, higher = longer survival
Method in brief: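 Transplanted-tumor mice were given test agent; controls received vehicle only. Survival readings from the two groups were divided (treated over control).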

[1] = dose: 100.0 mg/kg/injection, schedule: Q04DX002 (ip), vehicle: Klucel (hydroxypropylcellulose) (HPC)
[2] = dose: 100.0 mg/kg/injection, schedule: Q04DX003 (ip), vehicle: Klucel (hydroxypropylcellulose) (HPC)
[3] = dose: 200.0 mg/kg/injection, schedule: Q04DX003 (ip), vehicle: Klucel (hydroxypropylcellulose) (HPC)
[4] = dose: 400.0 mg/kg/injection, schedule: Q04DX003 (ip), vehicle: Klucel (hydroxypropylcellulose) (HPC)
[5] = dose: 50.0 mg/kg/injection, schedule: Q01DX009 (ip), vehicle: saline with Tween-80
[6] = dose: 100.0 mg/kg/injection, schedule: Q01DX009 (ip), vehicle: saline with Tween-80
[7] = dose: 200.0 mg/kg/injection, schedule: Q01DX009 (ip), vehicle: saline with Tween-80
[8] = dose: 400.0 mg/kg/injection, schedule: Q01DX009 (ip), vehicle: saline with Tween-80
[9] = dose: 100.0 mg/kg/injection, schedule: Q01DX009 (ip), vehicle: Klucel (hydroxypropylcellulose) (HPC)
[10] = dose: 200.0 mg/kg/injection, schedule: Q01DX009 (ip), vehicle: Klucel (hydroxypropylcellulose) (HPC)
[11] = dose: 100.0 mg/kg/injection, schedule: Q04DX003 (ip), vehicle: saline with Tween-80
[12] = dose: 200.0 mg/kg/injection, schedule: Q04DX003 (ip), vehicle: saline with Tween-80
[13] = dose: 400.0 mg/kg/injection, schedule: Q04DX003 (ip), vehicle: saline with Tween-80
[14] = dose: 50.0 mg/kg/injection, schedule: Q01DX009 (ip), vehicle: saline
[15] = dose: 100.0 mg/kg/injection, schedule: Q01DX009 (ip), vehicle: saline
[16] = dose: 50.0 mg/kg/injection, schedule: Q01DX001 (ip), vehicle: carboxymethylcellulose (CMC)
[17] = dose: 100.0 mg/kg/injection, schedule: Q01DX001 (ip), vehicle: carboxymethylcellulose (CMC)
[18] = dose: 200.0 mg/kg/injection, schedule: Q01DX001 (ip), vehicle: carboxymethylcellulose (CMC)
[19] = dose: 400.0 mg/kg/injection, schedule: Q01DX001 (ip), vehicle: carboxymethylcellulose (CMC)
[20] = dose: 100.0 mg/kg/injection, schedule: Q01DX001 (ip), vehicle: saline
[21] = dose: 200.0 mg/kg/injection, schedule: Q01DX001 (ip), vehicle: saline

Measured: T/C

CCOC(=O)CNc1cc(Cl)cc(Cl)c1
inactive: [1] 100 % of control | dose: 200.0 mg/kg/injection, schedule: Q04DX002 (ip), vehicle: Klucel (hydroxypropylcellulose) (HPC) 96 % of control | dose: 400.0 mg/kg/injection, schedule: Q04DX002 (ip), vehicle: Klucel (hydroxypropylcellulose) (HPC) 96 % of control

O=C(NC(=S)Nc1ccccc1Cl)c1ccccc1
inactive: [2] 94 % of control | [3] 96 % of control | [4] 97 % of control

COc1ccc([N+](=O)[O-])cc1NS(=O)(=O)c1ccc(Cl)c([N+](=O)[O-])c1
inactive: [5] 95 % of control and 90 % of control | dose: 50.0 mg/kg/injection, schedule: Q04DX003 (ip), vehicle: other 97 % of control | dose: 100.0 mg/kg/injection, schedule: Q01DX009 (ip), vehicle: other 105 % of control | [6] 93 % of control and 106 % of control | dose: 100.0 mg/kg/injection, schedule: Q04DX002 (ip), vehicle: other 107 % of control and 113 % of control | dose: 100.0 mg/kg/injection, schedule: Q04DX003 (ip), vehicle: other 96 % of control | [7] 95 % of control | dose: 200.0 mg/kg/injection, schedule: Q04DX002 (ip), vehicle: other 96 % of control and 102 % of control | dose: 200.0 mg/kg/injection, schedule: Q04DX003 (ip), vehicle: other 89 % of control | dose: 400.0 mg/kg/injection, schedule: Q01DX009 (ip), vehicle: other 87 % of control | [8] 95 % of control | dose: 400.0 mg/kg/injection, schedule: Q04DX002 (ip), vehicle: other 101 % of control and 102 % of control

CC(=O)OCC(C)CCC(=O)C(C)C1C(=O)CC2C3CC=C4CC(OC(C)=O)CCC4(C)C3CCC21C (stereo not drawn)
inactive: [6] 96 % of control | [7] 97 % of control | [8] 96 % of control

O=[N+]([O-])c1ccc(OCCCCCBr)c(Cl)c1
inactive: dose: 100.0 mg/kg/injection, schedule: Q04DX003 (ip), vehicle: gum acacia 102 % of control | dose: 200.0 mg/kg/injection, schedule: Q04DX003 (ip), vehicle: gum acacia 100 % of control | dose: 400.0 mg/kg/injection, schedule: Q04DX003 (ip), vehicle: gum acacia 102 % of control

O=S(=O)(Nc1c(Cl)c(Cl)c(Cl)c(Cl)c1NS(=O)(=O)c1ccccc1)c1ccccc1
inactive: [9] 101 % of control | [2] 94 % of control | [10] 92 % of control | [3] 100 % of control | [4] 95 % of control

O=C(O)c1cc(S(=O)(=O)F)cc(S(=O)(=O)F)c1
inactive: [6] 86 % of control

CC1(Br)Cc2ccccc2C1=O (stereo not drawn)
inactive: [11] 107 % of control | [12] 94 % of control | [13] 103 % of control

O=C(NCCCN1CCN(CCCNC(=O)c2cccnc2)CC1)c1cccnc1
inactive: dose: 6.25 mg/kg/injection, schedule: Q01DX009 (ip), vehicle: saline 92 % of control | dose: 12.5 mg/kg/injection, schedule: Q01DX009 (ip), vehicle: saline 93 % of control | dose: 25.0 mg/kg/injection, schedule: Q01DX009 (ip), vehicle: saline 97 % of control | [14] 101 % of control | [15] 109 % of control | dose: 150.0 mg/kg/injection, schedule: Q01DX009 (ip), vehicle: saline 100 % of control | dose: 225.0 mg/kg/injection, schedule: Q01DX009 (ip), vehicle: saline 109 % of control

O=C1C2C3C=CC(C3)C2C(=O)N1c1ccccc1 (stereo not drawn)
inactive: [11] 96 % of control | [12] 101 % of control | [13] 107 % of control

CC[CH2][Pb]([CH2]CC)([CH2]CC)[O]C(=O)C(Cl)(Cl)Cl
inactive: dose: 3.12 mg/kg/injection, schedule: Q01DX009 (ip), vehicle: Klucel (hydroxypropylcellulose) (HPC) 108 % of control | dose: 3.12 mg/kg/injection, schedule: Q04DX002 (ip), vehicle: Klucel (hydroxypropylcellulose) (HPC) 105 % of control | dose: 6.25 mg/kg/injection, schedule: Q01DX009 (ip), vehicle: Klucel (hydroxypropylcellulose) (HPC) 93 % of control | dose: 6.25 mg/kg/injection, schedule: Q04DX002 (ip), vehicle: Klucel (hydroxypropylcellulose) (HPC) 93 % of control | dose: 12.5 mg/kg/injection, schedule: Q01DX009 (ip), vehicle: Klucel (hydroxypropylcellulose) (HPC) 101 % of control | dose: 12.5 mg/kg/injection, schedule: Q04DX002 (ip), vehicle: Klucel (hydroxypropylcellulose) (HPC) 97 % of control and 99 % of control

CCCCCCCC/C=C\CCCCCCCCOB(OCCCCCCCC/C=C/CCCCCCCC)OCCCCCCCC/C=C/CCCCCCCC
inactive: [16] 96 % of control | [17] 105 % of control | [18] 105 % of control | [19] 102 % of control

CC(=O)N1CCC(Cc2ccccc2)CC1
inactive: dose: 75.0 mg/kg/injection, schedule: Q01DX009 (ip), vehicle: saline with Tween-80 104 % of control

O=C(NC1CCOC1=O)OCc1ccccc1 (stereo not drawn)
inactive: [6] 94 % of control | [11] 95 % of control | [7] 95 % of control | [12] 91 % of control | [8] 94 % of control | [13] 95 % of control

CCN(C)c1cc2c3c(c1)CCCN3CCC2
inactive: dose: 5.0 mg/kg/injection, schedule: Q01DX009 (ip), vehicle: saline 103 % of control

NC(=S)N/N=C1/C(=O)c2cccc3cccc1c23
inactive: dose: 75.0 mg/kg/injection, schedule: Q01DX001 (ip), vehicle: other 96 % of control

N#CCc1ccc2c(c1)[nH]c1ccccc12
inactive: [2] 100 % of control | [3] 100 % of control | [4] 105 % of control

N/C(=N\[N+](=O)[O-])Nc1nc2ccccc2s1
inactive: [1] 113 % of control

Cc1ccccc1C1=CCCCC1
inactive: [16] 87 % of control | [17] 104 % of control | [18] 96 % of control | [19] 97 % of control

CC(C)(c1ccc(OCC2CO2)cc1)c1ccc(OCC2CO2)cc1 (stereo not drawn)
inactive: [20] 101 % of control | [21] 109 % of control | dose: 400.0 mg/kg/injection, schedule: Q01DX001 (ip), vehicle: saline 96 % of control

CC(C)C(=O)c1ccccc1C(=O)O
inactive: [5] 93 % of control | [6] 93 % of control | [7] 93 % of control

CC(C)C(C)/C=C\C(C)C1CCC2=C3CCC4CC(O)CCC4(C)C3CCC21C (stereo not drawn)
inactive: dose: 100.0 mg/kg/injection, schedule: Q01DX001 (ip), vehicle: Klucel (hydroxypropylcellulose) (HPC) 97 % of control | dose: 200.0 mg/kg/injection, schedule: Q01DX001 (ip), vehicle: Klucel (hydroxypropylcellulose) (HPC) 97 % of control | dose: 400.0 mg/kg/injection, schedule: Q01DX001 (ip), vehicle: Klucel (hydroxypropylcellulose) (HPC) 93 % of control

CSc1nc(F)nc2c1ncn2C1OC(CO)C(O)C1O (stereo not drawn)
inactive: [20] 88 % of control | [21] 100 % of control

O=C1C2C3SC(c4nc5ccccc5cc43)C2C(=O)N1c1ccccc1 (stereo not drawn)
inactive: dose: 400.0 mg/kg/injection, schedule: Q01DX001 (ip), vehicle: saline with Tween-80 91 % of control

Nc1n[nH]c(N)n1.[Pt]
inactive: [14] 102 % of control | dose: 50.0 mg/kg/injection, schedule: Q04DX003 (ip), vehicle: saline 97 % of control | [15] 102 % of control | dose: 100.0 mg/kg/injection, schedule: Q04DX003 (ip), vehicle: saline 102 % of control | dose: 200.0 mg/kg/injection, schedule: Q04DX003 (ip), vehicle: saline 100 % of control

O=C(Nc1cccc(F)c1)SCc1ccccc1
inactive: dose: 100.0 mg/kg/injection, schedule: Q01DX009 (ip), vehicle: gum acacia 90 % of control | dose: 200.0 mg/kg/injection, schedule: Q01DX009 (ip), vehicle: gum acacia 90 % of control | dose: 400.0 mg/kg/injection, schedule: Q01DX009 (ip), vehicle: gum acacia 98 % of control

OC1CCCC(c2ccccc2)C1 (stereo not drawn)
inactive: [9] 97 % of control | [10] 97 % of control | dose: 400.0 mg/kg/injection, schedule: Q01DX009 (ip), vehicle: Klucel (hydroxypropylcellulose) (HPC) 95 % of control
